In patent publication US12552755B2, “Cinnamic amide derivative having FXR activating effect, pharmaceutical composition containing the same as active ingredient, and method for preparing the same” (KYUNGSUNG UNIVERSITY INDUSTRY COOPERATION FOUNDATION, priority 2019, dated 2026):

What follows are compounds tested against T1, farnesol X receptor (FXR) (Homo sapiens, UniProt Q96RI1) (assay: Farnesol X receptor (FXR) reporter gene assay (dual luciferase) in HepG2 cells). Conditions: dose 10 uM; HepG2 cells, drug treatment 24 hours; firefly/renilla luciferase ratio, Con = 1.00.
T1 construct: endogenous in cells; host or cells: HepG2
T1 sequence (Q96RI1 1-486): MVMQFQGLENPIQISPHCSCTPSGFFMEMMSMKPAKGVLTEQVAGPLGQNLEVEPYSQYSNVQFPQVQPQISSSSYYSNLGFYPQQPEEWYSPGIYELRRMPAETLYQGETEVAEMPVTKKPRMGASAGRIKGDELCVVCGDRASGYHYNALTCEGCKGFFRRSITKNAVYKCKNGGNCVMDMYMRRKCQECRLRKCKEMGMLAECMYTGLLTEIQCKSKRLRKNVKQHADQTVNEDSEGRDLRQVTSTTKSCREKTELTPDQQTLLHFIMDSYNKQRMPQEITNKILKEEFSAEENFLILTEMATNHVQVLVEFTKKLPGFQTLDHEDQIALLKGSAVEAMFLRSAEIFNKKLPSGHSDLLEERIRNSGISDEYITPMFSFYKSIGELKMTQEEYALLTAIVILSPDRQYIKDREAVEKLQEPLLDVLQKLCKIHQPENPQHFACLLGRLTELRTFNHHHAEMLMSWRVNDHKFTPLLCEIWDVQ
Assay type: cell-based
Method: HepG2 cells were purchased from ATCC (Manassas, VA, USA) and cultured in Dulbecco's modified Eagle's medium (DMEM; Hyclone) containing 10% fetal bovine serum (FBS, Hyclone, Logan, UT, USA), 50 units/mL penicillin (Hyclone) and 50 μg/mL streptomycin (Hyclone). All cells were cultured to have a confluency of about 80% to 90% under the conditions of 37° C. and 5% Co2.
In order to measure FXR transcription factor activity, HepG2 cells (1×10^5 cells/well) were cultured in a 48-well cell culture plate (SPL Life Science Co., Gyeonggido, Korea) for 20 hours and then transduced using Lipofectamin L3000 (Invitrogen, San Diego, CA, USA). Luciferase is an enzyme that catalyzes light-emitting reactions. A plasmid in which the firefly luciferase gene was fused to farnesol X receptor (FXR) and a plasmid in which the renilla luciferase gene was fused to thymidine kinase (TK) were used for transduction. Reacted were 25 μL of serum and antibiotic-free Opti-MEM® (Life Technologies, Grand Island, NY) and 0.5 μL of Lipofectamin L3000 per 0.5 μg of FXR-firefly luciferase plasmid and 10 ng of TK-renilla luciferase plasmid, and the cells were reacted with the reaction mixture for 24 hours. Thereafter, DMEM medium containing 0.1% serum was treated with a drug for 24 hours. After the reaction was completed, the drug-treated culture medium was discarded, and lysis buffer was added at 0.4 ml/well to remove the cells, then the cells were dispensed into a 96-well white plate (SPL Life Science Co.), and the luminescence level was measured using the Dual-glo Luciferase Assay System (Promega, Madison, WI, USA). For the firefly luciferase activity (to see the level of FXR expression) and renilla luciferase activity (to provide a reference value by showing constant expression), the luminescence level was measured using the GloMax Multi Detection System (Promega) and then the relative ratio (firefly luciferase activity/renilla luciferase activity) was calculated.

fold induction at 10 µM | SMILES
1.22 | CCOC(=O)CNC(=O)/C=C/c1ccc(O)cc1 [KS-001, ethyl (E)-(3-(4-hydroxyphenyl)acryloyl)glycinate]
1.22 | CCOC(=O)CNC(=O)/C=C/c1ccc(OCc2ccccc2)cc1 [KS-002, ethyl (E)-(3-(4-(benzyloxy)phenyl)acryloyl)glycinate]
1.1 | CCOC(=O)CNC(=O)/C=C/c1ccc(OCc2ccc(OC(F)(F)F)cc2)cc1 [KS-003, ethyl (E)-(3-(4-((4-(trifluoromethoxy)benzyl)oxy)phenyl)acryloyl)glycinate]
2.03 | CCOC(=O)CNC(=O)/C=C/c1ccc(OCc2ccc(-c3ccccc3)cc2)cc1 [KS-004, ethyl (E)-(3-(4-([1,1′-biphenyl]-4-ylmethoxy)phenyl)acryloyl)glycinate]
1.21 | CCOC(=O)CNC(=O)/C=C/c1ccc(OCc2ccc(F)cc2)cc1 [KS-005, ethyl (E)-(3-(4-((4-fluorobenzyl)oxy)phenyl)acryloyl)glycinate]
1.38 | CCOC(=O)CNC(=O)/C=C/c1ccc(OCc2ccc([N+](=O)[O-])cc2)cc1 [KS-006, ethyl (E)-(3-(4-((4-nitrobenzyl)oxy)phenyl)acryloyl)glycinate]
1.02 | CCOC(=O)CNC(=O)/C=C/c1ccc(OCc2cccc(OC(F)(F)F)c2)cc1 [KS-007, ethyl (E)-(3-(4-((3-(trifluoromethoxy)benzyl)oxy)phenyl)acryloyl)glycinate]
1.5 | CCOC(=O)CNC(=O)/C=C/c1ccc(OCc2cccc([N+](=O)[O-])c2)cc1 [KS-008, ethyl (E)-(3-(4-((3-nitrobenzyl)oxy)phenyl)acryloyl)glycinate]
1.44 | CCOC(=O)CNC(=O)/C=C/c1ccc(OCc2cc(F)c(F)cc2F)cc1 [KS-009, ethyl (E)-(3-(4-((2,4,5-trifluorobenzyl)oxy)phenyl)acryloyl)glycinate]
10.5 | CCOC(=O)CNC(=O)/C=C/c1ccc(OCc2c(-c3c(Cl)cccc3Cl)noc2C(C)C)cc1 [KS-010, ethyl (E)-(3-(4-((3-(2,6-dichlorophenyl)-5-isopropylisoxazol-4-yl)methoxy)phenyl)acryloyl)glycinate]
1.65 | CCOC(=O)CNC(=O)/C=C/c1ccc(OCc2c(-c3c(Cl)cccc3Cl)noc2C)cc1 [KS-011, ethyl (E)-(3-(4-((3-(2,6-dichlorophenyl)-5-methylisoxazol-4-yl)methoxy)phenyl)acryloyl)glycinate]
1.61 | CCOC(=O)CNC(=O)/C=C/c1ccc(OCc2c(-c3ccccc3)noc2C)cc1 [KS-012, ethyl (E)-(3-(4-((5-methyl-3-phenylisoxazol-4-yl)methoxy)phenyl)acryloyl)glycinate]
1.46 | O=C(O)CNC(=O)/C=C/c1ccc(O)cc1 [KS-013, (E)-(3-(4-hydroxyphenyl)acryloyl)glycine]
1.42 | O=C(O)CNC(=O)/C=C/c1ccc(OCc2ccccc2)cc1 [KS-014, (E)-(3-(4-(benzyloxy)phenyl)acryloyl)glycine]
2.65 | O=C(O)CNC(=O)/C=C/c1ccc(OCc2ccc(OC(F)(F)F)cc2)cc1 [KS-015, (E)-(3-(4-((4-(trifluoromethoxy)benzyl)oxy)phenyl)acryloyl)glycine]
1.99 | O=C(O)CNC(=O)/C=C/c1ccc(OCc2ccc(-c3ccccc3)cc2)cc1 [KS-016, (E)-(3-(4-([1,1′-biphenyl]-4-ylmethoxy)phenyl)acryloyl)glycine]
1.14 | O=C(O)CNC(=O)/C=C/c1ccc(OCc2ccc(F)cc2)cc1 [KS-017, (E)-(3-(4-((4-fluorobenzyl)oxy)phenyl)acryloyl)glycine]

fold induction at 10 µM | SMILES
1.28 | O=C(O)CNC(=O)/C=C/c1ccc(OCc2ccc([N+](=O)[O-])cc2)cc1 [KS-018, (E)-(3-(4-((4-nitrobenzyl)oxy)phenyl)acryloyl)glycine]
1.19 | O=C(O)CNC(=O)/C=C/c1ccc(OCc2cccc(OC(F)(F)F)c2)cc1 [KS-019, (E)-(3-(4-((3-(trifluoromethoxy)benzyl)oxy)phenyl)acryloyl)glycine]
1.39 | O=C(O)CNC(=O)/C=C/c1ccc(OCc2cccc([N+](=O)[O-])c2)cc1 [KS-020, (E)-(3-(4-((3-nitrobenzyl)oxy)phenyl)acryloyl)glycine]
2.01 | O=C(O)CNC(=O)/C=C/c1ccc(OCc2cc(F)c(F)cc2F)cc1 [KS-021, (E)-(3-(4-((2,4,5-trifluorobenzyl)oxy)phenyl)acryloyl)glycine]
3.34 | CC(C)c1onc(-c2c(Cl)cccc2Cl)c1COc1ccc(/C=C/C(=O)NCC(=O)O)cc1 [KS-022, (E)-(3-(4-((3-(2,6-dichlorophenyl)-5-isopropylisoxazol-4-yl)methoxy)phenyl)acryloyl)glycine]
1.93 | Cc1onc(-c2c(Cl)cccc2Cl)c1COc1ccc(/C=C/C(=O)NCC(=O)O)cc1 [KS-023, (E)-(3-(4-((3-(2,6-dichlorophenyl)-5-methylisoxazol-4-yl)methoxy)phenyl)acryloyl)glycine]
1.68 | Cc1onc(-c2ccccc2)c1COc1ccc(/C=C/C(=O)NCC(=O)O)cc1 [KS-024, (E)-(3-(4-((5-methyl-3-phenylisoxazol-4-yl)methoxy)phenyl)acryloyl)glycine]
10.9 | CCOC(=O)[C@H](C)NC(=O)/C=C/c1ccc(OCc2c(-c3c(Cl)cccc3Cl)noc2C(C)C)cc1 [KS-025, ethyl (E)-(3-(4-((3-(2,6-dichlorophenyl)-5-isopropylisoxazol-4-yl)methoxy)phenyl)acryloyl)-L-alaninate]
1.26 | CCOC(=O)[C@H](C)NC(=O)/C=C/c1ccc(OCc2c(-c3c(Cl)cccc3Cl)noc2C)cc1 [KS-026, ethyl (E)-(3-(4-((3-(2,6-dichlorophenyl)-5-methylisoxazol-4-yl)methoxy)phenyl)acryloyl)-L-alaninate]
1.04 | CCOC(=O)[C@H](C)NC(=O)/C=C/c1ccc(OCc2c(-c3ccccc3)noc2C)cc1 [KS-027, ethyl (E)-(3-(4-((5-methyl-3-phenylisoxazol-4-yl)methoxy)phenyl)acryloyl)-L-alaninate]
7.44 | CC(C)c1onc(-c2c(Cl)cccc2Cl)c1COc1ccc(/C=C/C(=O)N[C@@H](C)C(=O)O)cc1 [KS-028, (E)-(3-(4-((3-(2,6-dichlorophenyl)-5-isopropylisoxazol-4-yl)methoxy)phenyl)acryloyl)-L-alanine]
1.71 | Cc1onc(-c2c(Cl)cccc2Cl)c1COc1ccc(/C=C/C(=O)N[C@@H](C)C(=O)O)cc1 [KS-029, (E)-(3-(4-((3-(2,6-dichlorophenyl)-5-methylisoxazol-4-yl)methoxy)phenyl)acryloyl)-L-alanine]
0.82 | Cc1onc(-c2ccccc2)c1COc1ccc(/C=C/C(=O)N[C@@H](C)C(=O)O)cc1 [KS-030, (E)-(3-(4-((5-methyl-3-phenylisoxazol-4-yl)methoxy)phenyl)acryloyl)-L-alanine]
1.89 | CCOC(=O)[C@@H](NC(=O)/C=C/c1ccc(OCc2c(-c3c(Cl)cccc3Cl)noc2C)cc1)C(C)C [KS-032, ethyl (E)-(3-(4-((3-(2,6-dichlorophenyl)-5-methylisoxazol-4-yl)methoxy)phenyl)acryloyl)-L-valinate]
0.93 | CCOC(=O)[C@@H](NC(=O)/C=C/c1ccc(OCc2c(-c3ccccc3)noc2C)cc1)C(C)C [KS-033, ethyl (E)-(3-(4-((5-methyl-3-phenylisoxazol-4-yl)methoxy)phenyl)acryloyl)-L-valinate]
8.91 | CC(C)c1onc(-c2c(Cl)cccc2Cl)c1COc1ccc(/C=C/C(=O)N[C@H](C(=O)O)C(C)C)cc1 [KS-034, (E)-(3-(4-((3-(2,6-dichlorophenyl)-5-isopropylisoxazol-4-yl)methoxy)phenyl)acryloyl)-L-valine]

Same assay, conditions: statement on Table 4 data

FXR activating effect compared with GW4064 | SMILES
superior to GW4064 | CCOC(=O)CNC(=O)/C=C/c1ccc(OCc2c(-c3c(Cl)cccc3Cl)noc2C(C)C)cc1 [KS-010, ethyl (E)-(3-(4-((3-(2,6-dichlorophenyl)-5-isopropylisoxazol-4-yl)methoxy)phenyl)acryloyl)glycinate]
superior to GW4064 | CCOC(=O)[C@H](C)NC(=O)/C=C/c1ccc(OCc2c(-c3c(Cl)cccc3Cl)noc2C(C)C)cc1 [KS-025, ethyl (E)-(3-(4-((3-(2,6-dichlorophenyl)-5-isopropylisoxazol-4-yl)methoxy)phenyl)acryloyl)-L-alaninate]
superior to GW4064 | CC(C)c1onc(-c2c(Cl)cccc2Cl)c1COc1ccc(/C=C/C(=O)N[C@@H](C)C(=O)O)cc1 [KS-028, (E)-(3-(4-((3-(2,6-dichlorophenyl)-5-isopropylisoxazol-4-yl)methoxy)phenyl)acryloyl)-L-alanine]
superior to GW4064 | CC(C)c1onc(-c2c(Cl)cccc2Cl)c1COc1ccc(/C=C/C(=O)N[C@H](C(=O)O)C(C)C)cc1 [KS-034, (E)-(3-(4-((3-(2,6-dichlorophenyl)-5-isopropylisoxazol-4-yl)methoxy)phenyl)acryloyl)-L-valine]
